# “Also recorded” adds a separate entry of the source.
# Assays:
# NK3 receptor = target: T1, NK3 receptor (Homo sapiens, UniProt P29371); assay: Cerep diversity panel screen at 10 µM; assay type: binding
# T1 construct: Cerep (contract laboratory)
# Procedure: (§1) Studies were conducted at Cerep (France)
# [1] = target: T2, human choline transporter (Homo sapiens, UniProt Q9GZV3); assay: Cerep diversity panel screen at 10 µM; assay type: binding
# T2 construct: Cerep (contract laboratory)
# Procedure: as §1
# [2] = system: site 2 of the Na2+-channel; assay: Cerep diversity panel screen at 10 µM; assay type: binding
# Procedure: as §1
# α2-adrenergic receptor = assay: Cerep diversity panel screen at 10 µM; assay type: binding
# Procedure: as §1
# R6/2 mice [3] = assay: Cued Two-Choice Swim Test; assay type: in vivo, mouse; conditions: for Cued 2-CST Reversal, Correct Choice: p vs Vehicle-treated R6/2 mice / Cued 2-CST Acquisition, % of Mice Reaching Criterion: p vs Vehicle-treated R6/2 mice: BID; for Cued 2-CST Reversal, Correct Choice: p vs Vehicle-treated R6/2 mice: ANOVA; for Cued 2-CST Acquisition, % of Mice Reaching Criterion: p vs Vehicle-treated R6/2 mice: at 9 Weeks, Fisher's exact test
# Procedure: The cued two-choice swim test was performed at 9 weeks of age. Testing was conducted under low light, white light conditions. The mice were taught to swim to (acquisition), or away from (reversal), a light positioned over the escape platform. Animals were placed within a rectangular tank (76 cm x 30 cm x 30 cm) filled with water maintained at 25°C ± 1°C. The water was rendered opaque by the addition of non-toxic white paint. The escape platform was located 0.5 cm below the surface of the water at one end of the tank. A light source with a 25W bulb (white light), oriented toward the water, was clipped to one side of the tank above the escape platform (7 cm in diameter with the borders slanted and roughened to help the rodents climb to it). Under these conditions, the light intensity is measured as 200 lux on the illuminated side of the tank, and 3 lux on the dark side of the tank. The platform was located on the lit side of the arena across acquisition trials, although the location of the lit side within the room relative to the mouse’s entry point was varied. The location of the bulb and platform was different on different trials for the same mouse. On each trial, mice were placed into the middle of the tank and allowed to swim for up to 60 sec, or until they found the platform. […] During all acquisition days, mice were given 8 trials per day (4 blocks of 2 trials, separated by an interblock interval of 20-30 minutes). Training continued in this way until each mouse performed at 75% correct choices for 2 consecutive days; upon reaching this criterion for successful acquisition of the task, mice were placed into the reversal phase on an individual basis. During reversal training, (4 blocks of 2 trials per day), the platform was placed on the dark side of the tank. On each trial during testing days, the latency to reach the platform was recorded (60 seconds if the platform was not reached) and the trial was scored as either “correct”, “incorrect” or “no choice”. The maximum number of days of acquisition was 12 days. All mice went from acquisition into the reversal phase and the experiment was stopped when 2 consecutive days of 75% criterion was reached or after a maximum of 7 days of reversal testing. A correct choice was scored if the animal turned in the direction of the platform and successfully mounted the platform. An incorrect choice was scored if the animal swam in the direction opposite the platform. […] To make a choice, a mouse had to swim within 20 cm of either end of the tank.
# All values are presented as mean ± Standard Error of Mean (SEM), and differences are considered to be statistically significant at the p < 0.05 level. Statistical analysis was performed using StatsDirect statistical software. Differences between group means were analyzed by 1-way-ANOVA followed by Dunnett’s test (comparison to the control (=vehicle treated TG mice) group). The acquisition of the Cued two-choice swim test was analyzed using Fisher’s exact test.
# R6/2 mice [4] = assay: Survival study in R6/2 mice; assay type: in vivo, mouse; conditions: for Mean (±SEM) Survival Time / Medial Survival Time: R6/2 mice
# disease-relevant genes = assay: Taqman-qPCR of disease-relevant genes; assay type: in vivo, mouse; conditions: chronic administration; 13 weeks of age; lower dose group study
# Procedure: Total RNA was extracted with the mini-RNA kit accordingly to manufacturer instructions (Qiagen). Reverse transcription (RT) was performed using MMLV superscript reverse transcriptase (Invitrogen) and random hexamers (Operon) and all Taqman-qPCR reactions were performed using the Chromo4 Real-Time PCR Detector (BioRad) as described. Expression level of the gene-of-interest was normalised to the geometric mean of three endogenous housekeeping genes (Primer Design) as described. […]
# T1 sequence (P29371 whole entry, species assumed): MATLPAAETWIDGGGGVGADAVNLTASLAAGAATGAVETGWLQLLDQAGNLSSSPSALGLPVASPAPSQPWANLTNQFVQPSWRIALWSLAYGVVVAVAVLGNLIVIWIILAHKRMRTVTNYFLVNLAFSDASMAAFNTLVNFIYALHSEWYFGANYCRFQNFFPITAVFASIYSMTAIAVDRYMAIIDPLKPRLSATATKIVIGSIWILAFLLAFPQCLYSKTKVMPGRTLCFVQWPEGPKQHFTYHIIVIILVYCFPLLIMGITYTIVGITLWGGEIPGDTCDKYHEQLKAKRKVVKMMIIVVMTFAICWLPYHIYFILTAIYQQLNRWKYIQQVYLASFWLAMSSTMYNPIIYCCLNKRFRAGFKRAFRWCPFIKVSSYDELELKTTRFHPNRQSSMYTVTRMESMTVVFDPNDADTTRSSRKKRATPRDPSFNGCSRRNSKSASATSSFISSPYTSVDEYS
# T2 sequence (Q9GZV3 whole entry): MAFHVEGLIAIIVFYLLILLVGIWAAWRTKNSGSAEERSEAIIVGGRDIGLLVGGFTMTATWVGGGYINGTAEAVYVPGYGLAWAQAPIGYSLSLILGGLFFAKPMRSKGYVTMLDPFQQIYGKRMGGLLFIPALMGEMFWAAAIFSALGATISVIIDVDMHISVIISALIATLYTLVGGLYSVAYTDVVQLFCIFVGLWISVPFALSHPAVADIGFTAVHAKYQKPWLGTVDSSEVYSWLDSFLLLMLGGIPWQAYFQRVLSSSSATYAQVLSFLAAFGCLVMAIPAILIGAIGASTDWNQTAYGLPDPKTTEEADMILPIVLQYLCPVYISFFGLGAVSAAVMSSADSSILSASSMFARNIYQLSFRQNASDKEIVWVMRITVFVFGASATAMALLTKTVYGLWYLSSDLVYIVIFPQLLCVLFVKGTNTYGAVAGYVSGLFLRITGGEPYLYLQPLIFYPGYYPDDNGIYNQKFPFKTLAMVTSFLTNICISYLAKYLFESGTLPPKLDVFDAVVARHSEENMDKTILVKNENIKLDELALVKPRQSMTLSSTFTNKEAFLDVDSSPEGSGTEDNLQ
structure (smiles),measurement,setting,value
"CN1C(=O)c2nc(Cc3ccc(C(F)(F)F)cc3)[nH]c2N2C1=N[C@H]1CCC[C@H]12 [SCH-51866, (+)-cis-5,6a,7,8,9,9a-hexahydro-2-[4-[trifluro-methyl]phenylmethyl]-5-methyl-cylopent[4,5]imidazo [2,1-b]purin-4(3H)one]",inhibition at 10 µM,NK3 receptor,57%
same,inhibition at 10 µM,[1],94%
same,inhibition,[2],66%
same,inhibition,α2-adrenergic receptor,88%
same,"Cued Two-Choice Swim Test: learning phase, reversal learning, latency to make the choice, effect in words","R6/2 mice [3]; R6/2 mice, 9 weeks of age",did not improve any of these parameters
same,"Cued 2-CST Reversal, Correct Choice: p vs Vehicle-treated R6/2 mice","R6/2 mice [3]; Test Day 1, 10 mg/kg p.o.",ANOVA: p=0.117
same,"Cued 2-CST Reversal, Correct Choice: p vs Vehicle-treated R6/2 mice","R6/2 mice [3]; Test Day 1, 30 mg/kg p.o.",ANOVA: p=0.117
same,"Cued 2-CST Reversal, Correct Choice: p vs Vehicle-treated R6/2 mice","R6/2 mice [3]; Test Day 2, 10 mg/kg p.o.",ANOVA: p=0.311
same,"Cued 2-CST Reversal, Correct Choice: p vs Vehicle-treated R6/2 mice","R6/2 mice [3]; Test Day 2, 30 mg/kg p.o.",ANOVA: p=0.311
same,"Cued 2-CST Reversal, Correct Choice: p vs Vehicle-treated R6/2 mice","R6/2 mice [3]; Test Day 3, 10 mg/kg p.o.",ANOVA: p=0.573
same,"Cued 2-CST Reversal, Correct Choice: p vs Vehicle-treated R6/2 mice","R6/2 mice [3]; Test Day 3, 30 mg/kg p.o.",ANOVA: p=0.573
same,"Cued 2-CST Reversal, Correct Choice: p vs Vehicle-treated R6/2 mice","R6/2 mice [3]; Test Day 4, 10 mg/kg p.o.",ANOVA: p=0.206
same,"Cued 2-CST Reversal, Correct Choice: p vs Vehicle-treated R6/2 mice","R6/2 mice [3]; Test Day 4, 30 mg/kg p.o.",ANOVA: p=0.206
same,"Cued 2-CST Reversal, Correct Choice: p vs Vehicle-treated R6/2 mice","R6/2 mice [3]; Test Day 5, 10 mg/kg p.o.",ANOVA: p=0.057
same,"Cued 2-CST Reversal, Correct Choice: p vs Vehicle-treated R6/2 mice","R6/2 mice [3]; Test Day 5, 30 mg/kg p.o.",ANOVA: p=0.057
same,"Cued 2-CST Reversal, Correct Choice: p vs Vehicle-treated R6/2 mice","R6/2 mice [3]; Test Day 6, 10 mg/kg p.o.",ANOVA: p=0.140
same,"Cued 2-CST Reversal, Correct Choice: p vs Vehicle-treated R6/2 mice","R6/2 mice [3]; Test Day 6, 30 mg/kg p.o.",ANOVA: p=0.140
same,"Cued 2-CST Acquisition, % of Mice Reaching Criterion: p vs Vehicle-treated R6/2 mice","R6/2 mice [3]; Test Day 2, 10 mg/kg p.o.",p>0.999
same,"Cued 2-CST Acquisition, % of Mice Reaching Criterion: p vs Vehicle-treated R6/2 mice","R6/2 mice [3]; Test Day 2, 30 mg/kg p.o.",p=0.487
same,"Cued 2-CST Acquisition, % of Mice Reaching Criterion: p vs Vehicle-treated R6/2 mice","R6/2 mice [3]; Test Day 3, 10 mg/kg p.o.",p>0.999
same,"Cued 2-CST Acquisition, % of Mice Reaching Criterion: p vs Vehicle-treated R6/2 mice","R6/2 mice [3]; Test Day 3, 30 mg/kg p.o.",p>0.999
same,"Cued 2-CST Acquisition, % of Mice Reaching Criterion: p vs Vehicle-treated R6/2 mice","R6/2 mice [3]; Test Day 4, 10 mg/kg p.o.",p>0.999
same,"Cued 2-CST Acquisition, % of Mice Reaching Criterion: p vs Vehicle-treated R6/2 mice","R6/2 mice [3]; Test Day 4, 30 mg/kg p.o.",p>0.999
same,"Cued 2-CST Acquisition, % of Mice Reaching Criterion: p vs Vehicle-treated R6/2 mice","R6/2 mice [3]; Test Day 5, 10 mg/kg p.o.",p>0.999
same,"Cued 2-CST Acquisition, % of Mice Reaching Criterion: p vs Vehicle-treated R6/2 mice","R6/2 mice [3]; Test Day 5, 30 mg/kg p.o.",p>0.999
same,"Cued 2-CST Acquisition, % of Mice Reaching Criterion: p vs Vehicle-treated R6/2 mice","R6/2 mice [3]; Test Day 6, 10 mg/kg p.o.",p=0.313
same,"Cued 2-CST Acquisition, % of Mice Reaching Criterion: p vs Vehicle-treated R6/2 mice","R6/2 mice [3]; Test Day 6, 30 mg/kg p.o.",p>0.999
same,"Cued 2-CST Acquisition, % of Mice Reaching Criterion: p vs Vehicle-treated R6/2 mice","R6/2 mice [3]; Test Day 7, 10 mg/kg p.o.",p=0.508
same,"Cued 2-CST Acquisition, % of Mice Reaching Criterion: p vs Vehicle-treated R6/2 mice","R6/2 mice [3]; Test Day 7, 30 mg/kg p.o.",p=0.752
same,"Cued 2-CST Acquisition, % of Mice Reaching Criterion: p vs Vehicle-treated R6/2 mice","R6/2 mice [3]; Test Day 8, 10 mg/kg p.o.",p=0.313
same,"Cued 2-CST Acquisition, % of Mice Reaching Criterion: p vs Vehicle-treated R6/2 mice","R6/2 mice [3]; Test Day 8, 30 mg/kg p.o.",p=0.751
same,"Cued 2-CST Acquisition, % of Mice Reaching Criterion: p vs Vehicle-treated R6/2 mice","R6/2 mice [3]; Test Day 9, 10 mg/kg p.o.",p>0.999
same,"Cued 2-CST Acquisition, % of Mice Reaching Criterion: p vs Vehicle-treated R6/2 mice","R6/2 mice [3]; Test Day 9, 30 mg/kg p.o.",p>0.999
same,"Cued 2-CST Acquisition, % of Mice Reaching Criterion: p vs Vehicle-treated R6/2 mice","R6/2 mice [3]; Test Day 10, 10 mg/kg p.o.",p>0.999
same,"Cued 2-CST Acquisition, % of Mice Reaching Criterion: p vs Vehicle-treated R6/2 mice","R6/2 mice [3]; Test Day 10, 30 mg/kg p.o.",p>0.999
same,"Cued 2-CST Acquisition, % of Mice Reaching Criterion: p vs Vehicle-treated R6/2 mice","R6/2 mice [3]; Test Day 11, 10 mg/kg p.o.",p>0.999
same,"Cued 2-CST Acquisition, % of Mice Reaching Criterion: p vs Vehicle-treated R6/2 mice","R6/2 mice [3]; Test Day 11, 30 mg/kg p.o.",p=0.716
same,"Cued 2-CST Acquisition, % of Mice Reaching Criterion: p vs Vehicle-treated R6/2 mice","R6/2 mice [3]; Test Day 12, 10 mg/kg p.o.",p>0.999
same,"Cued 2-CST Acquisition, % of Mice Reaching Criterion: p vs Vehicle-treated R6/2 mice","R6/2 mice [3]; Test Day 12, 30 mg/kg p.o.",p>0.999
same,"Generalized Wilcoxon (Peto-Prentice) Test, Chi-square for equiv. of death rates p","R6/2 mice [4]; 10 mg/kg (p.o., BID) column",Chi-square for equiv. of death rates p=0.543
same,"Log-rank (Peto) Test, Chi-square for equiv. of death rates p","R6/2 mice [4]; 10 mg/kg (p.o., BID) column",0.555
same,Mean (±SEM) Survival Time,"R6/2 mice [4]; 10 mg/kg (p.o., BID)",115 (±7) days
same,Medial Survival Time,"R6/2 mice [4]; 10 mg/kg (p.o., BID)",110 days
same,"Generalized Wilcoxon (Peto-Prentice) Test, Chi-square for equiv. of death rates p","R6/2 mice [4]; 30 mg/kg (p.o., BID) column",Chi-square for equiv. of death rates p=0.543
same,"Log-rank (Peto) Test, Chi-square for equiv. of death rates p","R6/2 mice [4]; 30 mg/kg (p.o., BID) column",0.555
same,Mean (±SEM) Survival Time,"R6/2 mice [4]; 30 mg/kg (p.o., BID)",122 (±5) days
same,Medial Survival Time,"R6/2 mice [4]; 30 mg/kg (p.o., BID)",121 days
same,"Survival, effect in words",R6/2 mice [4]; vs R6/2 vehicle-treated animals,no survival benefit
same,"expression of disease-relevant genes in striatum, cortex and cerebellum",disease-relevant genes,did not have a statistically significant effect; also recorded: no effects on the dysregulation of these genes

# — PMC3923778 (PLoS Currents, 2014)
